Laboratory results: PubChem BioAssay AID1259375 (The Scripps Research Institute Molecular Screening Center, 2018)
The source made the active and inactive calls. How the calls were made is not given here.

These molecules were tested against Microphthalmia-associated transcription factor (Homo sapiens) (UniProt O75030) (assay: MITF inhibitors by FRET titration, dose response, biochemical, high throughput (AID 1259375;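 further: FRET between CFP-tagged and YFP-tagged MITF protein partners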)). Settings: FRET biochemical assay, MITF inhibition.
Chain of Microphthalmia-associated transcription factor (Homo sapiens) (O75030 whole entry, looked up): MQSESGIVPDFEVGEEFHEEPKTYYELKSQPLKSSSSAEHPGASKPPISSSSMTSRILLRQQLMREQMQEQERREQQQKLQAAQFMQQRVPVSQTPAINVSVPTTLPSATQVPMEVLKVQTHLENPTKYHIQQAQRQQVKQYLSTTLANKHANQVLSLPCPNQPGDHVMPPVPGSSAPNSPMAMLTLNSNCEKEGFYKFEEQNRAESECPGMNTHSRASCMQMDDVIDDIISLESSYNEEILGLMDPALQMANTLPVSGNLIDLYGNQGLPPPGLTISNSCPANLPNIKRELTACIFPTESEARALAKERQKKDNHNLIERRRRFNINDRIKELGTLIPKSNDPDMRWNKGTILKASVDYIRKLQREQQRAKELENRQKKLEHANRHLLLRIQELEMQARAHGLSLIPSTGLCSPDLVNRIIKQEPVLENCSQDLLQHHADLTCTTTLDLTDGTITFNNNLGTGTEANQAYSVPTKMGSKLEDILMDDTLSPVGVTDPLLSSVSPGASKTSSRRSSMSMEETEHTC
For `O=C(O)c1cc(S(=O)(=O)Nc2ccncc2)ccc1O`, the IC50 was > 7.05 µM (inactive).
`O=C(O)c1cc([N+](=O)[O-])cc2c1-c1c(cc([N+](=O)[O-])cc1[N+](=O)[O-])/C2=C/c1ccco1` showed an IC50 of 1.77 µM.
With `OC[C@H]1OC([S-])[C@H](O)[C@@H](O)[C@@H]1O.[Au+]` (stereo partly drawn) the IC50 was > 6.48 µM (inactive).
For `O=C1N[C@H](Cc2ccccc2)C(=O)N2CCN(C(=O)NC3CCCCC3)C[C@H]12`, the IC50 was > 6.48 µM (inactive).
Molecule `CC(=O)Oc1ccccc1N1C(=O)c2ccc(Oc3cccc(N)c3)cc2C1=O` has an IC50 of 2.14 µM.
`O=C(COC(=O)c1cc(-c2ccco2)nc2ccccc12)NC1CC1` was tested, and the IC50 was > 6.94 µM (inactive).
For `CCCOc1ccc(N)cc1N`, the IC50 was > 6.22 µM (inactive).
`CCN(CCN(C)C)Cc1ccc(F)cc1` was tested, and the IC50 was > 6.48 µM (inactive).
With `CN(C)CCOCCOc1ccccc1-c1ccccc1` the IC50 was > 6.48 µM (inactive).
`O=C(NC1CCCCC1)N1CCN2C(=O)[C@H]3CCCN3C(=O)[C@H]2C1` was tested, and the IC50 was > 6.48 µM (inactive).
For `CN1C(=O)[C@H]2CN(C(=O)NC3CCCCC3)CCN2C(=O)[C@@H]1CO`, the IC50 was > 6.48 µM (inactive).
`CN(C)[C@@H]1C(=O)C(C(=O)NCN2CCCC2)=C(O)[C@@]2(O)C(=O)C3=C(O)c4c(O)cccc4[C@@](C)(O)[C@H]3C[C@@H]12` was tested, and the IC50 was > 6.48 µM (inactive).
For `Cc1ccc(/C(C#N)=C\c2ccco2)cc1`, the IC50 was > 6.48 µM (inactive).
Work on `COc1cc(C)c2c(c1C=O)Oc1c(c(C)c(O)c3c1C(O)OC3=O)OC2=O` (stereo not drawn) yielded an IC50 of 1.66 µM.
`CCCCn1c(=O)[nH]c(=O)c2c1nc(-c1ccc([N+](=O)[O-])o1)n2C` was tested, and the IC50 was > 7 µM (inactive).
In the case of `Cc1c(NC(=O)C(C)OC(=O)c2cc3c(s2)CCC3)c(=O)n(-c2ccccc2)n1C` (stereo not drawn), the IC50 is reported as > 6.7 µM (inactive).
`CCOC1=CC(c2ccc3c(c2)OCO3)CC(=O)c2c(C)oc(C)c21` (stereo not drawn) was tested, and the IC50 was > 6.48 µM (inactive).
`CN(CCc1ccccn1)Cc1ccc(F)cc1` was tested, and the IC50 was > 6.59 µM (inactive).
For `N#Cc1c(-c2ccco2)cc(-c2ccco2)nc1N`, the IC50 was > 6.48 µM (inactive).
For `Cc1cccc(CN2CCN(C3CCC(C)CC3)CC2)c1` (stereo not drawn), the IC50 was > 5.54 µM (inactive).
`NC(=O)c1cc(NC(=O)COC(=O)COc2cccc(C(F)(F)F)c2)cc(C(N)=O)c1` was tested, and the IC50 was > 6.49 µM (inactive).
With `O=C1c2c(O)cccc2Cc2cccc(O)c21` the IC50 was > 6.48 µM (inactive).
For `O=C(COC(=O)COc1ccc(Cl)cc1)NCc1ccco1`, the IC50 was > 7.21 µM (inactive).
`O=C(OC1(C(F)(F)F)C(=O)Nc2cc3c(cc21)OCO3)c1ccc(Cl)nc1` (stereo not drawn) gave an IC50 of 3.84 µM.
For `COc1ccc2c3c(cccc13)C(=O)N(C)C2=O`, the IC50 was > 6.48 µM (inactive).
With `CC1=C(C#N)C(c2cc3c(cc2[N+](=O)[O-])OCO3)C2=C(CCCC2=O)N1` (stereo not drawn) the IC50 was > 6.48 µM (inactive).
For `O=C(NCc1cccnc1)c1ccnc(-c2cccs2)c1`, the IC50 was > 6.93 µM (inactive).
For `CC[C@H](C)[C@@H]1NC(=O)[C@H]2CN(C(=O)NCc3ccccc3)CCN2C1=O`, the IC50 was > 6.48 µM (inactive).
With `O=C(NCc1ccccc1)N1CCN2C(=O)[C@H]3CCCN3C(=O)[C@H]2C1` the IC50 was > 6.48 µM (inactive).
In the case of `Nc1ccc(C(=O)O)c(O)c1`, the IC50 is reported as 1.96 µM.
`O=C1N[C@@H](COCc2ccccc2)C(=O)N2CCN(C(=O)NC3CCCCC3)C[C@H]12` was tested, and the IC50 was > 6.48 µM (inactive).
With `O=S(=O)(O)c1cc(S(=O)(=O)O)c2cc(O)c(S(=O)(=O)O)cc2c1` the IC50 was > 6.48 µM (inactive).
In the case of `Clc1ccc2c(c1)CC(c1nc(Nc3cncnc3)c3ccccc3n1)CO2` (stereo not drawn), the IC50 is reported as > 6.48 µM (inactive).
With `O=C1N[C@@H](CSCc2ccccc2)C(=O)N2CCN(C(=O)NC3CCCCC3)C[C@H]12` the IC50 was > 6.48 µM (inactive).
For `NC(=O)c1ccc(-c2cccs2)s1`, the IC50 was > 7.32 µM (inactive).
`CN(C)[C@@H]1C(=O)C(C(N)=O)=C(O)[C@@]2(O)C(=O)C3=C(O)c4c(O)cccc4[C@@](C)(O)[C@H]3[C@H](O)[C@@H]12` gave an IC50 of 4.11 µM.
In the case of `C=CCc1cc(Cl)ccc1OCCOCCNCCOC`, the IC50 is reported as > 6.48 µM (inactive).
`CN1CC(=O)N2CCN(C(=O)NC3CCCCC3)C[C@@H]2C1=O` was tested, and the IC50 was > 6.48 µM (inactive).
